Results from US12403141B2, “Deuterated MK2 pathway inhibitors and methods of using the same” (ACLARIS THERAPEUTICS, INC., priority 2019, dated 2025).
Like-named read-outs stand apart in the source and are kept apart here.

Experiments:
human hepatocytes = test: In vitro metabolite profile in human hepatocytes; assay type: in vitro ADME; parameters: key to UV % at 280-290 nm or observed (+ or --), metabolite M387 (O-dealkylation) / UV % at 280-290 nm or observed (+ or --), metabolite M532b (Hydroxylation) / UV % at 280-290 nm or observed (+ or --), metabolite M532e (Hydroxylation) / UV % at 280-290 nm or observed (+ or --), metabolite M563 (O-dealkylation + Glucuronidation) / UV % at 280-290 nm or observed (+ or --), metabolite M530b (Hydroxylation) / UV % at 280-290 nm or observed (+ or --), metabolite M530e (Hydroxylation): +: only detected by MS; --: not detected or trace; conditions: 10 μM; for UV % at 280-290 nm, Parent-T0 min: T0 min (normalized as 100%)
Experimental: (§1) Briefly, each test compound (final concentration of 10 μM containing 0.1% DMSO) was incubated with rat, dog, minipig, monkey, or human hepatocytes (final viable cell density of 1×10^6 cells/mL) at 37° C. with 5% CO2 in HI hepatocyte maintenance media (BIOIVT; Catalog #Z99009) for 120 minutes. Reactions were initiated by combining 200 μL of pre-warmed 2× dosing solution containing 20 μM test compound and 0.2% DMSO in HI maintenance media with 200 μL of pre-warmed hepatocyte solution containing 2×10^6 cells/mL in HI maintenance media. Samples were taken at 0 minutes (T0) and 120 minutes (T120) by quenching the reaction with 1200 μL acetonitrile. After quenching, the samples were sonicated for 2 minutes and then centrifuged at 1400 rpm for 5 minutes. A 1400-μL aliquot of the supernatant was evaporated under a stream of N2 until dry. The dried extracts were then reconstituted with 200 μL acetonitrile: H2O (1:3 v/v), vortexed for 2 minutes and centrifuged at 14000 rpm for 5 minutes. A 2-μL aliquot of the supernatant was injected onto a Xevo UPLC-UV-G2-S Q-Tof system (Waters®) with positive-ion electrospray ionization for analysis. Chromatographic separation was achieved on an Acquity UPLC®BEH C18 column (2.1×50 mm, 1.7 μm; Waters®) by gradient elution using varying proportions of mobile phase A (H2O with 0.1% formic acid) and mobile phase B (acetonitrile with 0.1% formic acid) at a constant flow rate of 400 μL/minute over a total run time of 10 minutes. LC-UV-MS extract ion chromatograms (EIC) of the T120 samples were compared to the T0 samples to identify the major putative metabolites which were named as Mm/z.

dog hepatocytes = test: In vitro metabolite profile in dog hepatocytes; assay type: in vitro ADME; parameters: key to UV % at 280-290 nm or observed (+ or --), metabolite M387 (O-dealkylation) / UV % at 280-290 nm or observed (+ or --), metabolite M532b (Hydroxylation) / UV % at 280-290 nm or observed (+ or --), metabolite M532c (Hydroxylation) / UV % at 280-290 nm or observed (+ or --), metabolite M532d (Hydroxylation) / UV % at 280-290 nm or observed (+ or --), metabolite M532e (Hydroxylation) / UV % at 280-290 nm or observed (+ or --), metabolite M563 (O-dealkylation + Glucuronidation) / UV % at 280-290 nm or observed (+ or --), metabolite M530b (Hydroxylation) / UV % at 280-290 nm or observed (+ or --), metabolite M530c (Hydroxylation) / UV % at 280-290 nm or observed (+ or --), metabolite M530d (Hydroxylation) / UV % at 280-290 nm or observed (+ or --), metabolite M530e (Hydroxylation): +: only detected by MS; --: not detected or trace; conditions: 10 μM; for UV % at 280-290 nm, Parent-T0 min: T0 min (normalized as 100%)
Experimental: as §1

[1] = IV pharmacokinetics in male SD rats; assay type: in vivo, rat; conditions: for clearance: male, Sprague-Dawley, rat, plasma, iv
Experimental: Pharmacokinetic parameters of some examples were evaluated in male Sprague Dawley (SD) rats after intravenous (IV) and oral (PO) dosing. Male SD rats (5-6 weeks of age) were fasted for 12 hours before administration of the compound of interest. Animals were allowed access to food 2 h after dosing and water was given ad libitum. Except for the compound of Example 13, pharmacokinetic experiments comparing deuterium containing and non-deuterium containing compounds were performed at the same time using the same cohort of animals. The pharmacokinetic properties of the compound of Example 13 were evaluated separately and compared to previously generated data.
For IV dosing, a 0.5 mg/mL solution of the test compound was prepared in a vehicle consisting of 5% DMSO, 5% Cremophore, 90% normal saline. For a 1 mpk dose, 2 mL/kg of this dosing vehicle was administered to each rat by bolus injection into the tail vein. For lower doses, the dosing solution was diluted with the appropriate amount of vehicle. Example 3 was evaluated at 3 mpk by preparing a 1.5 mg/mL solution in the same vehicle and dosing 2 mL/kg. Blood samples from each animal was collected in di-sodium EDTA coated containers at 0.12, 0.25, 0.5, 1.0, 2.0, 4.0, 8.0 and 24.0 hours after dosing. Plasma was separated from the blood samples within 15 minutes following collection and stored at −20±5° C. before analysis.
A standard curve was generated from a stock solution of the test compound with known concentration in methanol. Working solutions having known concentrations ranging from 5-20,000 ng/mL were prepared from the stock solution by dilution with methanol:water (80:20 v/v). 5 uL of the working solutions were added to 45 uL of blank rat plasma to provide standard samples for analysis.
Plasma samples collected from rats after dosing were allowed to reach room temperature. A 50 uL aliquot of each plasma sample and the standard curve plasma samples were treated with 200 uL of acetonitrile containing an internal standard (100 ng/mL; warfarin/diclofenac) and mixed well. The samples were vortexed for 5 minutes followed by centrifugation for 5 minutes at 14000 rpm at 4° C. The supernatant (10 uL) was analyzed by LC-MS/MS (LC: Shimadzu SIL HTc, MS: MDS Sciex API-5500 & 4000 using 75%/25% acetonitrile/0.2% formic acid in Milli-Q water, flow rate: 1.0 mL/min, run time 3 minutes, Atlantis dC18(50×4.6 mm, 3 um; Waters®)) and the concentrations of the test compound in the plasma samples collected from rats at each time point were determined by comparison to the standard curve samples.
Pharmacokinetic parameters were calculated from the plasma concentrations at each time point using Phoenix WinNonlin (Version 7.0) by the non-compartmental analysis (NCA) method. Clearance values are reported as mL/min/kg. AUC values are reported as ng·h/mL.

[2] = 120 min, relative to parent at T0

Structure (SMILES): Cc1cnc(-c2ccnc(C(C)(C)O)n2)cc1-n1c(C)cc(OCc2ncc(F)cc2F)c(Cl)c1=O (atropisomer, axis not shown; (P)) [Example 1-H2, (P)-3-chloro-4-((3,5-difluoropyridin-2-yl)methoxy)-2′-(2-(2-hydroxypropan-2-yl)pyrimidin-4-yl)-5′,6-dimethyl-2H-[1,4′-bipyridin]-2-one]
- UV % at 280-290 nm or observed (+ or --), metabolite M387 (O-dealkylation) (human hepatocytes; [2]): 3.5%
- UV % at 280-290 nm or observed (+ or --), metabolite M530b (Hydroxylation) (human hepatocytes; [2]): +
- UV % at 280-290 nm or observed (+ or --), metabolite M530c (Hydroxylation) (human hepatocytes; [2]): 1.3%
- UV % at 280-290 nm or observed (+ or --), metabolite M530e (Hydroxylation) (human hepatocytes; [2]): +
- UV % at 280-290 nm or observed (+ or --), metabolite M563 (O-dealkylation + Glucuronidation) (human hepatocytes; [2]): --
- UV % at 280-290 nm or observed (+ or --), metabolite M530d (Hydroxylation) (human hepatocytes; [2]): 1.5%
- UV % at 280-290 nm, Parent-T120 min (human hepatocytes; [2]): 84.8%
- UV % at 280-290 nm, Parent-T0 min (human hepatocytes): 100.0%
- UV % at 280-290 nm or observed (+ or --), metabolite M387 (O-dealkylation) (dog hepatocytes; [2]): 4.1%
- UV % at 280-290 nm or observed (+ or --), metabolite M530b (Hydroxylation) (dog hepatocytes; [2]): --
- UV % at 280-290 nm or observed (+ or --), metabolite M530c (Hydroxylation) (dog hepatocytes; [2]): +
- UV % at 280-290 nm or observed (+ or --), metabolite M530e (Hydroxylation) (dog hepatocytes; [2]): +
- UV % at 280-290 nm or observed (+ or --), metabolite M563 (O-dealkylation + Glucuronidation) (dog hepatocytes; [2]): +
- UV % at 280-290 nm or observed (+ or --), metabolite M530d (Hydroxylation) (dog hepatocytes; [2]): --
- UV % at 280-290 nm, Parent-T120 min (dog hepatocytes; [2]): 87.0%
- UV % at 280-290 nm, Parent-T0 min (dog hepatocytes): 100.0%
- IV clearance 0.1 mpk ([1]; IV 0.1 mpk, ± one standard deviation): 24 ± 4 mL/min/kg
- IV clearance 0.3 mpk ([1]; IV 0.3 mpk, ± one standard deviation): 23 ± 7 mL/min/kg
- IV clearance 1 mpk ([1]; IV 1 mpk, ± one standard deviation): 24 ± 5 mL/min/kg

Structure (SMILES): [2H]C([2H])(Oc1cc(C)n(-c2cc(-c3ccnc(C(C)(C)O)n3)ncc2C)c(=O)c1Cl)c1ncc(F)cc1F (single isomer, unassigned) [Example 1-D2, (P)-3-Chloro-4-((3,5-difluoropyridin-2-yl)methoxy-d2)-2′-(2-(2-hydroxypropan-2-yl)pyrimidin-4-yl)-5′,6-dimethyl-2H-[1,4′-bipyridin]-2-one]
- UV % at 280-290 nm or observed (+ or --), metabolite M387 (O-dealkylation) (human hepatocytes; [2]): +
- UV % at 280-290 nm or observed (+ or --), metabolite M532b (Hydroxylation) (human hepatocytes; [2]): +
- UV % at 280-290 nm or observed (+ or --), metabolite M532e (Hydroxylation) (human hepatocytes; [2]): +
- UV % at 280-290 nm, Parent-T120 min (human hepatocytes; [2]): 88.2%
- UV % at 280-290 nm, Parent-T0 min (human hepatocytes): 100.0%
- UV % at 280-290 nm or observed (+ or --), metabolite M387 (O-dealkylation) (dog hepatocytes; [2]): +
- UV % at 280-290 nm or observed (+ or --), metabolite M532b (Hydroxylation) (dog hepatocytes; [2]): --
- UV % at 280-290 nm or observed (+ or --), metabolite M532c (Hydroxylation) (dog hepatocytes; [2]): +
- UV % at 280-290 nm or observed (+ or --), metabolite M532e (Hydroxylation) (dog hepatocytes; [2]): +
- UV % at 280-290 nm or observed (+ or --), metabolite M532d (Hydroxylation) (dog hepatocytes; [2]): --
- UV % at 280-290 nm, Parent-T120 min (dog hepatocytes; [2]): 96.0%
- UV % at 280-290 nm, Parent-T0 min (dog hepatocytes): 100.0%
- effect of deuterium substitution on clearance ([1]; IV, versus non-deuterated comparator Example 1-H2): clear and consistent reduction in clearance
- clearance ([1]; 0.1 mg/kg, IV 0.1 mpk, ± one standard deviation, read-out: IV clearance 0.1 mpk): 16 ± 4 mL/min/kg
- clearance ([1]; 0.3 mg/kg, IV 0.3 mpk, ± one standard deviation, read-out: IV clearance 0.3 mpk): 12 ± 3 mL/min/kg
- clearance ([1]; 1 mg/kg, IV 1 mpk, ± one standard deviation, read-out: IV clearance 1 mpk): 9.5 mL/min/kg
